Experiment [1] deals with postoperative ocular pain in patients undergoing photorefractive keratectomy (PRK) surgery. Kind of experiment: PRK study: visual analog scale (VAS) pain assessment. It is filed as in vivo, human. The protocol: (§1) The study was a proof of concept, double-masked, randomized, vehicle-controlled study of compound I administered as eye drops in addition to standard of care treatment in patients after PRK surgery. PRK surgery was performed as an outpatient procedure under topical anesthesia with removal of the corneal epithelium to expose the stroma for the laser ablation. Compound I dosing was as single eye drop of 2.5% (25 mg/ml, 0.925 mg/drop), administered four times daily (every six hours) in one eye from immediate post-op (time 0) to last dose at 72 hours.
The study consisted of 2 treatment periods using a crossover design. Patients underwent PRK surgery on 2 separate occasions (periods), one eye at a time. Patients were randomized to receive either compound 1 or vehicle following procedure 1 and the alternate following procedure 2.
Forty patients were randomized in a 1:1 ratio to two sequences: compound I during period 1, followed by vehicle in period 2, or vehicle during period 1 followed by compound I during period 2. Each patient was administered one drop four times daily for 72 hours following PRK surgery on their study eye (Day 1, Periods 1 and 2). The initial study eye was the non-dominant eye as established at screening and in agreement of the patient and the investigator. The patients returned for follow-up visits on Days 2, 3, 4 and 8 of Period 1 after surgery in the first eye, with optional daily visits to follow the patient until wound healing was complete. The second eye surgery was not performed if any complications were noticed.
Patient subjective experience of pain was recorded using VAS, a numeric assessment of pain between 0 and 100, with 0 representing no pain, and 100 representing worst imaginable pain. […] Since it was important clinically to both decrease the maximum pain as well as the overall pain that the patient experiences during the immediate postoperative period, the two periods of 6 hours and up to 12 hours postoperatively, were evaluated as primary endpoints. All evaluable VAS data was collected using an ePRO, which was an electronic device (cell phone with software application), on which patients marked their pain levels at the appropriate time points.
Rescue oral analgesics: It is not ethical to refuse pain control medication to patients postoperatively as part of a clinical trial. […] Because the use of oral rescue medication may be a potential confounder of the pain VAS evaluation, three approaches were used when analyzing pain VAS scores to account for the influence of pain meds (assuming 4 hours of rescue medication effect): (1) any recorded VAS score within 4 hours after use of rescue medication was considered missing; (2) all the recorded VAS scores was used; and (3) any recorded VAS scores within 4 hours after rescue medication use was imputed by the record taken prior to the rescue medication.

The subject of experiment [2] is patients undergoing photorefractive keratectomy (PRK) surgery. Kind of experiment: PRK study: Ocular Pain Assessment Survey (OPAS). In kind it is in vivo, human. As for the experimental part:
as §1
The OPAS is a validated instrument for quantifying and monitoring corneal and ocular surface pain and quality of life, developed in response to an identified need from a National Eye Institute Workshop in 2010. See Qazi et al., Ophthalmology July 123(7):1458-1468 (2016). The rating scale of the overall pain severity in the OPAS from Qazi et al. rated from 0 (no pain) to 10 (severe pain) or for frequency of symptoms from 0% (never) to 100% (all the time), as per the survey. The patients were asked to fill out the OPAS survey/questionnaire at Day 2, Day 4 (at the end of treatment period with study drug) and Day 8. Statistical analysis of OPAS results was not performed.

[3] abbreviates: 2.5% four times daily after PRK.
Setting [4] is: 2.5% four times daily after PRK, VAS 0-100.
Setting [5] is: 2.5% four times daily after PRK, VAS 0-100, ORM-adjusted, N = 30.

Take `CC(C)c1nc2cc(O)ccc2c(=O)n1-c1ccc(C#N)cc1` [Compound I, 4-(7-hydroxy-2-isopropyl-4-oxo-4H-quinazolin-3-yl)-benzonitrile]: in experiment [1] (setting [3]), the “VAS 0-12 hours post-operatively: % Diff compound I vs. Vehicle” value was −22% and the “VAS at 6 hours post-operatively: % Diff compound I vs. Vehicle” value is −25%. Moreover, in experiment [1] (setting [4]), the “VAS 0-12 hours post-operatively: Diff (compound I-Vehicle) of model based means” value is reported as −8.56 and the “VAS at 6 hours post-operatively: Diff (compound I-Vehicle) of model based means” value is recorded as −11.1. Besides, in experiment [1] (setting [5]), the “Model estimated mean VAS pain severity score 0-12 hours post-operatively” value is reported as 30.90 and the “Model estimated mean VAS pain severity score at 6-hours post-operatively” value is 34.63. For the same molecule, the “Mean change in VAS score one-half hour after instillation of eye drop” value (from here on “Mean change in VAS score one-half hour”) in experiment [1] (6.5 hours vs 6 hours post-operative) is −3.1. Besides, in experiment [1] (18.5 hours vs 18 hours post-operative), the “Mean change in VAS score one-half hour” value is reported as 2.8. Moreover, the “Mean change in VAS score one-half hour” value in experiment [1] (24.5 hours vs 24 hours post-operative) turned out to be 1.3. In addition, the “VAS pain severity scores vs Vehicle up to 36 hours after surgery” value in experiment [1] (all scheduled time points) is “lower for compound I than Vehicle at all scheduled time points up to and including 36 hours after surgery”. Besides, in experiment [1] (no statistically significant difference at p 0.10), the “Difference between compound I and Vehicle VAS scores from 36 to 72 hours after PRK surgery” value is recorded as “only marginally different”. Moreover, the “VAS pain severity scores vs Vehicle during the first 18 hours after surgery” value in experiment [1] (p-value threshold 0.10, 6 out of the 7 time points, starting with hour 1) is reported as “statistically significantly lower VAS pain severity scores”. Also, the “OPAS questions 4, 5, 6: eye pain intensity during the previous 24 hours (most painful, least painful, average)” value in experiment [2] (Day 2, compared to Vehicle, no statistical analysis) is reported as “all 3 answers numerically favored compound I”. In addition, in experiment [2] (compared to Vehicle, no statistical analysis), the “OPAS questions 22-25: how often eye pain associated with redness, burning, sensitivity to light, tearing” value is “all answers favored compound I”. In addition, in experiment [2] (in vivo), the “OPAS: pain control and quality of life, compound I vs. Vehicle treatment period” value is “better pain control and quality of life”.

These data come from US11234982B2, “Methods for treating ocular surface pain” (NOVARTIS AG, priority 2019, dated 2022).
